Read-outs that look alike come from different tables or passages of the source.
Tests used:
GBA3 = details: cited from earlier work
SARS-CoV-2 [1] = assay: microbe, parasite or virus in culture; assay type: cell-based
SARS-CoV-2 [2] = assay: Viral load reduction assay in ALI-PBEC; assay type: cell-based; details: 48 hpi
Method: Thus, ALI-PBEC cells were infected with SARS-CoV-2 (10^5 PFU per insert; estimated MOI ∼0.1) and treated with compounds on the apical side of the cells for 2 h. For uninfected controls, PBS was used instead of virus. The compounds were also present in the basal medium during the whole experiment until 48 hpi, when samples were harvested. […] (Figure 4D).
ALI-PBEC were pretreated with compound in the basal medium for 3 h. Cells were infected with 100 000 PFU of SARS-CoV-2/Leiden0008 per insert (estimated MOI 0.1) with compounds present in the inoculum. After 2 h at 37 °C on a rocking platform, the inoculum was removed and cells were washed three times with warm PBS. Compounds stayed present in the basal medium until 48 h postinfection. At 48 hpi the viral load was determined by plaque assay on a 200 μL apical wash (PBS incubated on the apical side of the insets for 10 min at 37 °C). For assessing cytotoxicity with the CyQuant LDH cytotoxicity assay (Thermo Fisher Scientific), 10 μL of apical wash was diluted 5 times with 40 μL of PBS. A 25 μL volume of this dilution was added to 25 μL of assay reagent and incubated for 30 min at RT in the dark. The plate was fixed and measured at a wavelength of 490 nm (Envision reader, PerkinElmer). For the activity-based probe labeling, the insets were washed one more time with PBS and processed as described previously.[52] Briefly, cells were lysed with 60 μL of potassium phosphate buffer per insert. A fluorescently labeled probe (JJB383) was diluted in MclIvaine buffer (pH 7) to a 10 μM stock and incubated for 5 min on ice. For labeling of the cell lysate, 10 μL of lysate was added to 10 μL of MclIvaine buffer and 5 μL of probe. The lysate was incubated for 30 min at 37 °C before the addition of 10 μL of Laemmli sample buffer (4×). Samples were heated at 95 °C for 5 min and separated in a 10% SDS-PAGE gel. Fluorescence was measured at a wavelength of 625 nm (Cy5) with a Uvitec Alliance Q9 imager (BioSPX). After imaging, the gels were stained with GelCode Blue stain reagent (Thermo Fisher Scientific) and visualized using a Uvitec Essential V6 system to check for equal loading.

in vitro = details: African green monkey
SARS-CoV-2 [3] = assay type: cell-based
[4] = test system: recombinant Mus musculus α-Glu II; assay: Thermal shift assay (SYPRO orange); assay type: binding; details: 10 μM Mmα-Glu-II with 50 μM inhibitor; unliganded control 49.9 °C
SARS-CoV-2 [5] = assay: CPE reduction assay on H1299/ACE2 lung epithelial cells; assay type: cell-based; details: compared with Vero E6
HCoV-229E = assay type: cell-based
GBA1 = details: cited from earlier work
GBA2 = details: cited from earlier work
SARS-CoV-2 [6] = assay: Plaque reduction assay on H1299/ACE2 cells (time of treatment); assay type: cell-based; details: H1299/ACE2; compound 11 at 5 μM
Method: To evaluate whether compound 11 has an effect on host proteins (for instance, ACE2) involved in viral entry, we treated monolayers of H1299/ACE2 cells with compound 11 either 48 or 2 h before infection, during infection (0–1 h), or starting from 1 h postinfection (hpi). The cell monolayers were infected with ∼20 PFU of SARS-CoV-2, and after 1 h the inoculum was replaced with an overlay. In one well (Post Infection) the overlay contained compound 11. Remdesivir, a viral RNA synthesis inhibitor, was added to the overlay of another well, as a positive control for blocking virus replication in the cell.
H1299/ACE2 cells were seeded in a 6-well plate at a density of 1.3 × 10^5 cells/well (20% confluency), 96 h prior to infection. […] The monolayers were infected with ∼20 PFU of SARS-CoV-2/Leiden0008. In the postinfection treatment, the compound (or RDV) was added to the Avicel overlay. Cells were incubated for 4 days at 37 °C before fixation and crystal violet staining.

[7] = Severe acute respiratory syndrome coronavirus 2, Vero C1008, Vero E6 cells, SARS-CoV-2/Leiden0002, n = 3, mean ± SEM, read-out: EC50 (μM), SARS-CoV-2 CPE reduction
[8] = Severe acute respiratory syndrome coronavirus 2, Vero C1008, read-out: EC50 (μM), SARS-CoV-2 CPE reduction

For `CCCCN1C[C@H](O)[C@@H](O)[C@H](O)[C@H]1CO` [Compound 1, N-butyl-DNJ, reference compound], the “inhibition of GBA3” value (GBA3) is listed as “inhibits”, the EC50 (SARS-CoV-2 [1]; [7]) is listed as 114 ± 10.3 µM and the EC50 (SARS-CoV-2 [1]; Vero E6 cells, SARS-CoV-2/Leiden0002, n = 3, mean ± SEM, read-out: EC50 (μM), SARS-CoV-2 CPE reduction) is listed as greater than 100 µM. The “viral load in ALI-PBEC (in words)” value (SARS-CoV-2 [2]; 100 μM (highest concentration)) was “only a slight effect”, the CC50 at 3 days (in vitro) was greater than 200 µM and the “reduction of infectious progeny production (in words)” value (SARS-CoV-2 [3]) was “only minimally”.
With `OC[C@@H]1[C@@H](O)[C@H](O)[C@@H](O)CN1CCCCCOCc1ccc2ccccc2c1` [Compound 2, naphthyl-deoxynojirimycin] the EC50 (SARS-CoV-2 [1]; [7]) was 6 ± 0.4 µM, the “viral load in ALI-PBEC (in words)” value (SARS-CoV-2 [2]; 10 and 100 μM) was “reduced SARS-CoV-2 to similar titers” and the CC50 at 3 days (in vitro) was greater than 200 µM. For the same compound, the “Tm/°C” value [4] was 63.5 °C, the “EC50 values in CPE reduction assay (in words)” value (SARS-CoV-2 [5]) was “comparable EC50 values” and the “virus infectivity of HCoV-229E (in words)” value (HCoV-229E) was “did not show any reduction in virus infectivity”.
`OC[C@@H]1[C@@H](O)[C@H](O)[C@@H](O)CN1CCCCCOCc1cc2ccccc2c2ccccc12` [Compound 3] showed an EC50 (SARS-CoV-2 [1]; [7]) of 3.25 ± 0.42 µM and a CC50 (in vitro) of 50 µM.
`OC[C@@H]1[C@@H](O)[C@H](O)[C@@H](O)CN1CCCCCOCC1CCCO1` (some centres unmarked) [Compound 4] gave an EC50 (SARS-CoV-2 [1]; [7]) of 51.7 ± 3.37 µM and a CC50 at 3 days (in vitro) greater than 200 µM.
With `OC[C@@H]1[C@@H](O)[C@H](O)[C@@H](O)CN1CCCCCOCC12CC3CC(CC(C3)C1)C2` [Compound 5] the EC50 (SARS-CoV-2 [1]; [7]) was 13.9 ± 8 µM and the CC50 at 3 days (in vitro) was 200 µM.
With `CCCCCCOCCCCCN1C[C@H](O)[C@@H](O)[C@H](O)[C@H]1CO` [Compound 6] the EC50 (SARS-CoV-2 [1]; [7]) was 11.8 ± 0.8 µM and the CC50 at 3 days (in vitro) was greater than 200 µM.
In the case of `CC(C)(C)COCCCCCN1C[C@H](O)[C@@H](O)[C@H](O)[C@H]1CO` [Compound 7], the EC50 (SARS-CoV-2 [1]; [7]) is reported as 22.7 ± 4.3 µM and the CC50 at 3 days (in vitro) is reported as greater than 200 µM.
`OC[C@H]1[C@@H](O)[C@H](O)[C@@H](O)CN1CCCCCOCC12CC3CC(CC(C3)C1)C2` [Compound 8] showed an EC50 (SARS-CoV-2 [1]; [7]) of 104 ± 12.4 µM and a CC50 at 3 days (in vitro) greater than 200 µM.
For `OC[C@@H]1[C@@H](O)[C@H](O)[C@@H](O)[C@H]2O[C@@H]12` [Compound 9, 1,6-epi-cyclophellitol], the EC50 (SARS-CoV-2 [1]; [7]) is given as greater than 200 µM, the “inhibition of GBA1” value (GBA1) is given as “partially inhibit” and the CC50 at 3 days (in vitro) is given as greater than 200 µM. For the same compound, the “inhibition of GBA2” value (GBA2) was “partially inhibit”.
For `OC[C@@H]1[C@@H](O)[C@H](O)[C@@H](O)[C@H]2N[C@@H]12` [Compound 10, 1,6-epi-cyclophellitol aziridine], the EC50 (SARS-CoV-2 [1]; [7]) is listed as 14 ± 3.2 µM, the “inhibition of GBA1” value (GBA1) is listed as “partially inhibit” and the CC50 at 3 days (in vitro) is listed as greater than 200 µM. For the same compound, the “inhibition of GBA2” value (GBA2) was “partially inhibit”.
Work on `CO[C@@H]1[C@@H](O)[C@H](O)[C@@H](CO)[C@@H]2OS(=O)(=O)O[C@H]12` [Compound 12] yielded an EC50 (SARS-CoV-2 [1]; [7]) greater than 200 µM and a CC50 at 3 days (in vitro) greater than 200 µM.
For `CO[C@H]1[C@H](O)[C@@H](CO)[C@@H]2OS(=O)(=O)O[C@@H]2[C@@H]1O` [Compound 13], the EC50 (SARS-CoV-2 [1]; [7]) was greater than 200 µM and the CC50 at 3 days (in vitro) was greater than 200 µM.
In the case of `CO[C@H]1[C@H](O)[C@@H](O)[C@H]2OS(=O)(=O)O[C@H]2[C@@H]1CO` [Compound 14], the EC50 (SARS-CoV-2 [1]; [7]) is reported as 16.9 ± 2.1 µM and the CC50 at 3 days (in vitro) is reported as greater than 200 µM.
Compound `COC[C@@H]1[C@@H](O)[C@H](O)[C@@H](O)[C@H]2OS(=O)(=O)O[C@@H]12` [Compound 15] has an EC50 (SARS-CoV-2 [1]; [7]) greater than 100 µM and a CC50 at 3 days (in vitro) greater than 200 µM.
Compound `CO[C@H]1[C@H]2OS(=O)(=O)O[C@H]2[C@H](CO)[C@@H](O)[C@@H]1OC` [Compound 16] has an EC50 (SARS-CoV-2 [1]; [7]) greater than 200 µM and a CC50 at 3 days (in vitro) greater than 200 µM.
`O=S1(=O)N[C@H]2[C@H](CO)[C@@H](O)[C@H](O)[C@@H](O)[C@H]2O1` [Compound 17] gave an EC50 (SARS-CoV-2 [1]; [7]) of 45.3 ± 1.52 µM and a CC50 at 3 days (in vitro) greater than 200 µM.
Compound `O=S1(=O)N[C@@H]2[C@H](O)[C@@H](O)[C@H](O)[C@@H](CO)[C@@H]2O1` [Compound 18] has an EC50 (SARS-CoV-2 [1]; [7]) greater than 100 µM and a CC50 at 3 days (in vitro) greater than 200 µM.
`O=S1(=O)N[C@@H]2[C@H](O)[C@@H](O)[C@H](O)[C@@H](CO)[C@@H]2N1` [Compound 19] showed an EC50 (SARS-CoV-2 [1]; [7]) greater than 200 µM and a CC50 at 3 days (in vitro) greater than 200 µM.
In the case of `OC[C@H]1C[C@@H]2O[C@@H]2[C@@H](O)[C@@H]1O` [Compound 20], the EC50 (SARS-CoV-2 [1]; [7]) is reported as 17.7 ± 1.28 µM, the CC50 at 3 days (in vitro) is reported as greater than 200 µM and the “Tm/°C” value [4] is reported as 64.7 °C.
For `OC[C@H]1C[C@@H]2N[C@@H]2[C@@H](O)[C@@H]1O` [Compound 21], the EC50 (SARS-CoV-2 [1]; [8]) was 67.6 ± 14.8 µM, the CC50 at 3 days (in vitro) was greater than 200 µM and the “Tm/°C” value [4] was 49.5 °C.
With `O=S1(=O)O[C@@H]2[C@@H](O)[C@H](O)[C@@H](CO)C[C@@H]2O1` [Compound 22] the EC50 (SARS-CoV-2 [1]; [7]) was greater than 200 µM, the CC50 at 3 days (in vitro) was greater than 200 µM and the “Tm/°C” value [4] was 51.7 °C.
Work on `OC[C@H]1C[C@H]2[C@@H]([C@@H](O)[C@@H]1O)N2CCCCCOCc1ccc2ccccc2c1` (some centres unmarked) [Compound 23] yielded an EC50 (SARS-CoV-2 [1]; [8]) of 64.9 ± 0.77 µM and a CC50 at 3 days (in vitro) greater than 200 µM.
Work on `OC[C@H]1C[C@H]2[C@@H]([C@@H](O)[C@@H]1O)N2CCCCCOCc1ccc(-c2ccccc2)cc1` (some centres unmarked) [Compound 24] yielded an EC50 (SARS-CoV-2 [1]; [8]) of 28.6 ± 0.21 µM and a CC50 at 3 days (in vitro) of 200 µM.
In the case of `CCCC(=O)N1[C@@H]2[C@@H](O)[C@H](O)[C@@H](CO)C[C@@H]21` [Compound 25], the EC50 (SARS-CoV-2 [1]; [7]) is reported as 22.2 ± 4.12 µM and the CC50 at 3 days (in vitro) is reported as greater than 200 µM.
`CCCCN1[C@@H]2[C@@H](O)[C@H](O)[C@@H](CO)C[C@@H]21` (some centres unmarked) [Compound 26] showed an EC50 (SARS-CoV-2 [1]; [8]) of 91.4 ± 20.6 µM and a CC50 at 3 days (in vitro) greater than 200 µM.
Compound `OC[C@H]1C[C@H]2[C@@H]([C@@H](O)[C@@H]1O)N2CCCCCOCC12CC3CC(CC(C3)C1)C2` (some centres unmarked) [Compound 27] has an EC50 (SARS-CoV-2 [1]; [8]) of 26.9 ± 1.3 µM and a CC50 at 3 days (in vitro) of 100 µM.
For `OC[C@H]1C[C@H]2[C@@H]([C@@H](O)[C@@H]1O)N2CCCCCOCc1cccc2ccccc12` (some centres unmarked) [Compound 28], the EC50 (SARS-CoV-2 [1]; [8]) was 56.7 ± 1.38 µM and the CC50 at 3 days (in vitro) was greater than 200 µM.
For `COCCCCCCCCCN1C[C@H](O)[C@@H](O)[C@H](O)[C@H]1CO` [UV-4, reference compound], the “EC50 values in CPE reduction assay (in words)” value (SARS-CoV-2 [5]) was “comparable EC50 values”.
With `CCC(CC)COC(=O)[C@H](C)N[P@](=O)(OC[C@H]1O[C@@](C#N)(c2ccc3c(N)ncnn23)[C@H](O)[C@@H]1O)Oc1ccccc1` [remdesivir, reference compound] the “plaque formation, treatment after infection (in the overlay)” value (SARS-CoV-2 [6]) was “prevented the formation of plaques”.

Source: publication PMC11363342 (ACS Central Science, 2024)
